Read-outs that look alike come from different tables or passages of the source.
Legend:
[1] = test system: asexual blood stage Pf NF54; assay: Fixed-ratio isobole drug combination assay (SYBR Green I); type: cell-based, Plasmodium falciparum
Description: The in vitro interactions of celastrol with artemisone and MB was determined using a fixed-ratio isobole analysis on Pf NF54 asexual parasites (SYBR Green I-based fluorescence). […] The fractional inhibitory concentration (FIC) for each drug in the combination was calculated as follows:
FIC = IC50 of drug A in combination with drug B/IC50 of drug A
The paired FIC values for the drugs in each combination were linearly plotted to provide the isobologram. The ΣFIC of FIC of drug A in combination with FIC of drug B was determined by calculating the mean FIC value, to obtain the representative FIC value for the drug combination. Data obtained were analysed in Excel, and sigmoidal dose-response curves and isobolograms were plotted using GraphPad 6.0. Experiments were performed in triplicate, and repeated 3 times.
As previously recorded for each of artemiside and artemisone in combination with MB ([Coertzen et al., 2018]), drug-drug interactions were monitored through evaluation of fractional inhibitory concentration (FIC) as determined by isobolograms. A mean ΣFIC<1.0 represents a synergistic interaction, >1.3 an antagonistic interaction and ΣFIC = 1 an indifferent or additive interaction. Isobologram analysis of the combinations of each of artemisone and MB in combination with celastrol was performed against the asexual stages of Pf NF54 using the SYBR Green I based assay. In Table 3 are shown the calculated FIC values for the independent combinations at each ratio as well as the ∑FIC values for each combination. In Figure 5 are presented the independent isoboles for each drug combination.

[2] = test system: A549 human lung carcinoma; assay: MTT cytotoxicity assay A549; type: cell-based; conditions: for SI, selectivity index IC50 normal cell line/IC50 tumour cell line: BEAS-2B/A549; for IC50: Homo sapiens, read-out: IC50 A549
Description: (§1) Proliferative and non-proliferative mammalian cell lines: human liver and lung cancer cell lines HepG2 and A549, and immortalized normal liver LO2 and lung BEAS-2B cells were purchased from ATCC (Manassas, VA, United States). Cells were cultured in RPMI-1640 medium supplemented with 10% fetal bovine serum and antibiotics penicillin (50 U/mL) and streptomycin (50 μg/ml; Invitrogen, United Kingdom). All cells were incubated at 37°C in a 5% humidified CO2 incubator.
(§2) All test compounds were dissolved in DMSO at a final concentration of 50 mM and stored at −20°C before use. Cytotoxicity was assessed with A549, HepG2, BEAS-2B and LO2 cells. The MTT assay with 3-(4,5-dimethylthiazole-2yl)-2,5-diphenyltetrazolium bromide (5 mg/ml) was performed as previously described ([Ng et al., 2022]). Briefly, 4 × 10^3 cells per well were seeded in 96-well plates before drug treatment. After overnight cell culture, the cells were exposed to different concentrations of selected compounds (0.19–100 μM) for 72 h. Cells without drug treatment were used as control. Next, 10 μl of the MTT solution was added to each well and incubated at 37°C for another 4 h. Solubilization buffer (100 μl) was then added (10 mM HCl in a solution of 10% of SDS) and incubated overnight. The absorbance A at 570 nm was measured on the next day. The percentage of cell viability was calculated using the following formula: Cell viability (%) = Atreated/Acontrol × 100. Dose response curves for all assays are given in the Supplementary Figures S3–S6.
(§3) Cytotoxicity was assessed for each of artemisinin, DHA and artemether, and the amino-artemisinins artemiside and artemisone, and celastrol against A549 human lung carcinoma, BEAS-2B non-tumorigenic human bronchial epithelium, HepG2 liver hepatocellular carcinoma and LO2 human normal hepatocytes using the MTT assay ([Ng et al., 2022]). Data are presented in Table 4, and dose response curves are given in the Supplementary Figures S3–S6.

[3] = test system: BEAS-2B non-tumorigenic human bronchial epithelium; assay: MTT cytotoxicity assay BEAS-2B; type: cell-based; conditions: 72 h, read-out: IC50 BEAS-2B
Description: as §1, §2, §3

[4] = test system: HepG2 liver hepatocellular carcinoma; assay: MTT cytotoxicity assay HepG2; type: cell-based, human; conditions: for IC50: Homo sapiens, read-out: IC50 HepG2; for SI, selectivity index IC50 normal cell line/IC50 tumour cell line: LO2/HepG2
Description: as §1, §2, §3

[5] = test system: LO2 human normal hepatocytes; assay: MTT cytotoxicity assay LO2; type: cell-based; conditions: Hepatocyte, 72 h, read-out: IC50 LO2
Description: as §1, §2, §3

[6] = test system: HepG2 liver hepatocellular carcinoma; assay: Cytotoxicity drug combination (isobole) assay HepG2; type: cell-based, human
Description: (§4) For the drug combination inhibitory assays, six drug preparations, of which four comprised combinations of either artemiside or artemisone with celastrol in a fixed ratio of 80:20, 60:40, 40:60, and 20:80 were prepared and screened against HepG2 liver hepatocellular carcinoma and LO2 human normal hepatocytes respectively. Two of these six preparations employed each of artemiside, artemisone or celastrol alone at a concentration approximately 5–7 times higher than the IC50 of the individual drug as presented in Table 4. […] Thus, six combinations for artemiside (µM) and celastrol (µM) prepared were 500:0, 400:4, 300:8, 200:12, 100:16, and 0:20, respectively.
(§5) As above for the malaria combination assays, a mean ΣFIC<1.0 represents a synergistic interaction, >1.3 represents an antagonistic interaction and ΣFIC = 1 represents an indifferent or additive interaction. Additivity, synergism and antagonism were also be established from the linear plots constructed from the FIC values of each of the drugs. A concave hyperbolic plot indicates synergism, a convex hyperbolic plot indicates an antagonistic interaction, and a straight line indicates an additive interaction. Isobole analysis of the combinations of each of artemiside and artemisone in combination with celastrol was performed against HepG2 and LO2 cells respectively. In Figure 5 is presented the isoboles for each drug combination.
(§6) Next, combinations of each of artemiside and artemisone with celastrol were examined, according to the method used to establish additivity/synergism described above. […] Against the normal hepatocyte LO2 cell line, whilst the interaction of artemisone with celastrol was synergistic, that of artemiside was additive. Synergism and additivity were also evident from the linear plots determined from the FIC values of each of the drugs (Table 5 and Figure 6). Thus, synergism is confirmed for combinations of the amino-artemisinins with celastrol against the HepG2 carcinoma cell line, and for artemisone-celastrol against human normal hepatocyte LO2.

[7] = test system: LO2 human normal hepatocytes; assay: Cytotoxicity drug combination (isobole) assay LO2; type: cell-based
Description: as §4, §5, §6

[8] = artemisone:celastrol drug ratio 20:80, Pf NF54
[9] = artemisone:celastrol drug ratio 40:60, Pf NF54
[10] = artemisone:celastrol drug ratio 60:40, Pf NF54
[11] = artemisone:celastrol drug ratio 80:20, Pf NF54
[12] = artemisone:celastrol drug ratio 20:80, HepG2
[13] = artemisone:celastrol drug ratio 40:60, HepG2
[14] = artemisone:celastrol drug ratio 60:40, HepG2
[15] = artemisone:celastrol drug ratio 80:20, HepG2
[16] = artemisone:celastrol drug ratio 20:80, LO2
[17] = artemisone:celastrol drug ratio 40:60, LO2
[18] = artemisone:celastrol drug ratio 60:40, LO2
[19] = artemisone:celastrol drug ratio 80:20, LO2

Structure (SMILES)	FIC [1, 8]	FIC [1, 9]	FIC [1, 10]	FIC [1, 11]	SI, selectivity index IC50 normal cell line/IC50 tumour cell line [2]	SI, selectivity index IC50 normal cell line/IC50 tumour cell line [4]	FIC [6, 12]	FIC [6, 13]	FIC [6, 14]	FIC [6, 15]	FIC [7, 16]	FIC [7, 17]	FIC [7, 18]	FIC [7, 19]	further results
CC1=C(O)C(=O)C=C2C1=CC=C1[C@@]2(C)CC[C@@]2(C)[C@@H]3C[C@](C)(C(=O)O)CC[C@]3(C)CC[C@]12C [Celastrol, celastrol]	0.93	0.76	0.60	0.50	0.16	0.83	0.88	0.4	0.23	0.14	0.7	0.4	0.29	0.23	FIC ([1]; MB:celastrol drug ratio 40:60, Pf NF54): 1.02; FIC ([1]; MB:celastrol drug ratio 60:40, Pf NF54): 0.72; FIC ([1]; MB:celastrol drug ratio 80:20, Pf NF54): 0.41; IC50 ([2]; A549, 72 h): 2830 ± 120 nM; IC50 [3]: 450 ± 100 nM; IC50 ([4]; HepG2, 72 h): 940 ± 100 nM; SI, selectivity index IC50 normal cell line/IC50 tumour cell line ([4]; listed as celastrol): < 1; IC50 [5]: 780 ± 200 nM; FIC ([6]; artemiside:celastrol drug ratio 20:80, HepG2): 0.35; FIC ([6]; artemiside:celastrol drug ratio 40:60, HepG2): 0.34; FIC ([6]; artemiside:celastrol drug ratio 60:40, HepG2): 0.14; FIC ([6]; artemiside:celastrol drug ratio 80:20, HepG2): 0.08; FIC ([7]; artemiside:celastrol drug ratio 20:80, LO2): 1.2; FIC ([7]; artemiside:celastrol drug ratio 40:60, LO2): 1.56; FIC ([7]; artemiside:celastrol drug ratio 60:40, LO2): 1.03; FIC ([7]; artemiside:celastrol drug ratio 80:20, LO2): 0.48
C[C@H]1[C@H](N2CCS(=O)(=O)CC2)O[C@@H]2O[C@@]3(C)CC[C@H]4[C@H](C)CC[C@@H]1[C@@]24OO3 [Artemisone, artemisone]	0.12	0.24	0.39	0.69	<0.7	>171	0.3	0.36	0.48	0.76	0.18	0.28	0.47	0.99	IC50 ([2]; A549, MTT, 72 h, ± SD): > 100000 nM; IC50 ([3]; MTT, ± SD): 73600 ± 1400 nM; IC50 ([4]; HepG2, MTT, 72 h, ± SD): 580 ± 200 nM; SI, selectivity index IC50 normal cell line/IC50 tumour cell line ([4]; listed as artemisone): > 170; IC50 ([5]; MTT, ± SD): > 100000 nM
